Measurements: patent publication US12295937B2, “Psychoactive medicines and their use for treating psychiatric and neurological conditions and disorders” (Transcend Therapeutics, Inc., priority 2021, dated 2025)
pEC50: −log10 of the molar value.

Key:
[1] = Mouse head-twitch response (HTR) test; format: in vivo; details: i.p., HTR measured for 10 minutes
Procedure: Head twitch response (HTR) was evaluated using C57BL/6J mice (ages 7-10 weeks). Mice were ear tagged at least three days after arrival to the animal facility and allowed to rest for at least three days before behavioral testing. Small magnets (SuperMagnetMan—N45 magnet 3 mm diameter, 0.5 mm thickness) were glued to car tags (Stoelting—La Pias Aluminum Ear Tags) at least two days before mice were car tagged. The experimental setup was adapted from Gonzales-Macso (de la Fuente Revenga et al., 2019) and Kwan (Jefferson et al., 2022; Savalia et al., 2021), including experimental apparatus and MATLAB code for analysis.
Doses were randomly assigned, and age-matched controls were injected with vehicle and randomly interspersed with drug conditions. At least three animals per sex were used for each drug dose and condition. If animals were used in multiple HTR experiments, experimental sessions took place at least one week apart. Two animals were run at a time. Immediately after i.p. injection of psychedelic or entactogen drug, animals were placed in separate plastic boxes within a larger chamber (Home Depot—28 in. W×32 in. H×21.5 in. D), and HTR was measured for 10 minutes. A small lamp was placed in the back of the larger chamber, and a high-speed camera (Basler-Aca 1920-155 μm) was suspended from the ceiling to record video of the animals in the plastic boxes. […]

[2] = target: serotonin transporter (SERT) (Rattus norvegicus, UniProt P31652); test: [3H]5HT uptake saturation in rat brain synaptosomes with or without methylone; format: biochemical; details: Kd right shifted, no decrease in Bmax
Chain of serotonin transporter (SERT) (P31652 whole entry): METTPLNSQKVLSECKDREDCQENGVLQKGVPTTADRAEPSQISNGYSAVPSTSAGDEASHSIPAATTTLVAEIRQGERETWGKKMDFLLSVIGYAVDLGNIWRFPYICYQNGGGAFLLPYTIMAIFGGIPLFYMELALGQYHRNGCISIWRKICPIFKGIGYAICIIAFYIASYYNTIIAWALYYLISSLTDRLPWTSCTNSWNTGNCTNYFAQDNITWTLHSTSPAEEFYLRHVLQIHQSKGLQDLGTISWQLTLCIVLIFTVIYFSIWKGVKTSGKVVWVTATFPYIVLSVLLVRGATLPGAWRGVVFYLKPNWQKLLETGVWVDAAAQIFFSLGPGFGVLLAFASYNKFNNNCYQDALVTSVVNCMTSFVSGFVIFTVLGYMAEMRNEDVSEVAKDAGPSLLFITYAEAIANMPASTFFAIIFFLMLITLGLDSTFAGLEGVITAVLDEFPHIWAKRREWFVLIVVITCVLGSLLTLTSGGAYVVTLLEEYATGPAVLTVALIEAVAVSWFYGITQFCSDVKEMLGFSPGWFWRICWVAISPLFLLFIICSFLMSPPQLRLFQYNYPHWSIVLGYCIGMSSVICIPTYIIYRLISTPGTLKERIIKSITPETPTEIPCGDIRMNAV

SERT = SERT (Rattus norvegicus, UniProt P31652); test: [3H]5-HT release from rat brain synaptosomes; format: biochemical; set-up: from tissue; synaptosomes for uptake and release; details: rat brain synaptosomes; read-out: Neurotransmitter release: EC50
Chain of SERT (P31652 whole entry, the tested form may be a part): as the sequence (P31652 whole entry) above
Procedure: Test compounds and synaptosomes were prepared as described for uptake inhibition assays. Synaptosomes treated with [^3H]5-HT, [^3H]DA or [^3H]NE were loaded onto filter chambers containing GF/C filters and placed in a superfusion system. Oxygenated Krebs buffer was perfused through the chambers at a rate of 1.5 mL/minute at 35° C. using either an 8-channel or a 12-channel peristaltic pump. Trapped air bubbles were removed from the filters prior to collecting fractions to ensure an even flow over the synaptosomal bed. After a superfusion period of 45 minutes, 2 basal fractions were collected followed by 6 fractions following the addition of the test drug. […] Scintillation cocktail was added, and the filters counted to determine residual radioactivity. Drug-evoked release of neurotransmitter was calculated by subtracting the average of the two basal fractions (collected prior to the drug addition), from the four fractions collected in the presence of drug. The drug-evoked release was then expressed as a percentage of the basal release. Potassium-evoked release was calculated by subtracting the average of two fractions collected prior to the addition of high KCl buffer from that in the two fractions following addition of high KCl buffer. Potassium-stimulated release was calculated as a percentage of basal release. […]

168 GPCRs [3] = target: 168 GPCRs (Homo sapiens, UniProt P32248); test: β-arrestin GPCR screen (PathHunter / GPCRmax), antagonist mode; details: CCR7, Antagonist mode, 10 uM
Chain of 168 GPCRs (Homo sapiens, UniProt P32248) (P32248 25-378): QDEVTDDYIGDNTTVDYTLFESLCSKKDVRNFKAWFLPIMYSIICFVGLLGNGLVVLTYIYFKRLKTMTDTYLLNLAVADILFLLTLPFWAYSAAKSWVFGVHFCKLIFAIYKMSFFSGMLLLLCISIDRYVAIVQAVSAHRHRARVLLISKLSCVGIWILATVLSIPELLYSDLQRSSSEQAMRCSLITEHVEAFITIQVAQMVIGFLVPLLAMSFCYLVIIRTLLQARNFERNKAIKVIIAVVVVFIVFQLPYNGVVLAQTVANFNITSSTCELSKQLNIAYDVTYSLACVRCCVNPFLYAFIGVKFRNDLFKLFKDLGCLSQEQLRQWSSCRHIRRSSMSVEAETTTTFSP

168 GPCRs [4] = target: 168 GPCRs (Homo sapiens, UniProt P30556); test: as above
Chain of 168 GPCRs (Homo sapiens, UniProt P30556) (P30556 whole entry): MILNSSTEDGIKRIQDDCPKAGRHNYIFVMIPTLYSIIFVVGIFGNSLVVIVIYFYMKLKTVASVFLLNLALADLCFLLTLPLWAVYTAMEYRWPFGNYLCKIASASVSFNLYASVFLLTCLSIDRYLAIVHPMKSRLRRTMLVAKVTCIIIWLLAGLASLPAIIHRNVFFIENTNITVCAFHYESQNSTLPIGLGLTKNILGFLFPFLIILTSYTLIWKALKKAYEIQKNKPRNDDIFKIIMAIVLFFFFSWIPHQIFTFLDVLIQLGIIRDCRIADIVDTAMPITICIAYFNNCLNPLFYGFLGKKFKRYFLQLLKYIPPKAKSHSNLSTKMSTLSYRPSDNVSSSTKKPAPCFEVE

168 GPCRs [5] = target: 168 GPCRs (Homo sapiens, UniProt O43603); test: as above; details: GALR2, Antagonist mode, 10 uM
Chain of 168 GPCRs (Homo sapiens, UniProt O43603) (O43603 whole entry): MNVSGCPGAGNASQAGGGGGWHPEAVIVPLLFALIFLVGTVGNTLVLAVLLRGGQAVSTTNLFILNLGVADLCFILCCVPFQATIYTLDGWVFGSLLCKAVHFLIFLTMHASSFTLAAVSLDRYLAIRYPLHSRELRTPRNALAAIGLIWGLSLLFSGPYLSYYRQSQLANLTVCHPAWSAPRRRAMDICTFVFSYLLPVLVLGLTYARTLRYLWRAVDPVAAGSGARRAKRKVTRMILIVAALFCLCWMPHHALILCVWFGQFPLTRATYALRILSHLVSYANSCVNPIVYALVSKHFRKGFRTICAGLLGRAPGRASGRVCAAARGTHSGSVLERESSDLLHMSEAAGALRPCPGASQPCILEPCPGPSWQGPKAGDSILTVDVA

168 GPCRs [6] = target: 168 GPCRs (Homo sapiens, UniProt P51685); test: as above; details: CCR8, Antagonist mode, 10 uM
Chain of 168 GPCRs (Homo sapiens, UniProt P51685) (P51685 whole entry): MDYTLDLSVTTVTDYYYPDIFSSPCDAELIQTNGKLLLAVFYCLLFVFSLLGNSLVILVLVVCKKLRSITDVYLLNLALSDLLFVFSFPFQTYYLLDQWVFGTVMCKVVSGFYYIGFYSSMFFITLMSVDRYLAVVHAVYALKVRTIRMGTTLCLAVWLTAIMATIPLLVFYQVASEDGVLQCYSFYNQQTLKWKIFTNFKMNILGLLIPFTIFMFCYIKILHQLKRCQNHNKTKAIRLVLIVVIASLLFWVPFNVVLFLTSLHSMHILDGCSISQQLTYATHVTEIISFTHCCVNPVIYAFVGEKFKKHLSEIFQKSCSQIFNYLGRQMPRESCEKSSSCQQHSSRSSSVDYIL

168 GPCRs [7] = target: 168 GPCRs (Homo sapiens, UniProt P49190); test: as above
Chain of 168 GPCRs (Homo sapiens, UniProt P49190) (P49190 25-550): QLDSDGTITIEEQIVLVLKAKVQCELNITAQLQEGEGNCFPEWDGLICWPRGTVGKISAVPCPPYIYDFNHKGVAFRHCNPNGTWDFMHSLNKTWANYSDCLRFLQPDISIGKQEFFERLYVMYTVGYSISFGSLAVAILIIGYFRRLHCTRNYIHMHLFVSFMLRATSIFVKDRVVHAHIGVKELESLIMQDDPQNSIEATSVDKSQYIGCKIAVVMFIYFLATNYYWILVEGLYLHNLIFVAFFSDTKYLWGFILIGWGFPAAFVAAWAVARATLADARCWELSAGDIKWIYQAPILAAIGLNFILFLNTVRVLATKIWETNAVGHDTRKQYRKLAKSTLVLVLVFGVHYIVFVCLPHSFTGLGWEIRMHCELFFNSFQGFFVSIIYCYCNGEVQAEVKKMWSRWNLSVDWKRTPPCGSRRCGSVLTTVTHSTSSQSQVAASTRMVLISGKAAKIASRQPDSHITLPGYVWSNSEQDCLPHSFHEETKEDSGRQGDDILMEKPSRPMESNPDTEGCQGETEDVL

168 GPCRs [8] = target: 168 GPCRs (Homo sapiens, UniProt P08588); test: as above; details: ADRB1, Antagonist mode, 10 uM
Chain of 168 GPCRs (Homo sapiens, UniProt P08588) (P08588 whole entry): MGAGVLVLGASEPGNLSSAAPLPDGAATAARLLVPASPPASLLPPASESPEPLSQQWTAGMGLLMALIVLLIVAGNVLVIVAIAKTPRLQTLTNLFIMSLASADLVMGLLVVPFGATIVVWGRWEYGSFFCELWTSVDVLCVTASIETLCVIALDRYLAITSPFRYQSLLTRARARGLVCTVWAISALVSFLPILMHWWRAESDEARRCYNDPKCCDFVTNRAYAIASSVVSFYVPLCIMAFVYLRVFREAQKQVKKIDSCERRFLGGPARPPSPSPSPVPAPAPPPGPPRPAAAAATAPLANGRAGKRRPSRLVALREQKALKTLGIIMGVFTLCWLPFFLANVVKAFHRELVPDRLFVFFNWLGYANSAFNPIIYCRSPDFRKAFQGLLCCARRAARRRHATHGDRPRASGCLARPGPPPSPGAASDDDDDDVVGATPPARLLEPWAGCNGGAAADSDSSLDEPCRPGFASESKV

168 GPCRs [9] = target: 168 GPCRs (Homo sapiens, UniProt Q8TDS5); test: as above; details: OXER1; Antagonist; 1 uM
Chain of 168 GPCRs (Homo sapiens, UniProt Q8TDS5) (Q8TDS5 whole entry): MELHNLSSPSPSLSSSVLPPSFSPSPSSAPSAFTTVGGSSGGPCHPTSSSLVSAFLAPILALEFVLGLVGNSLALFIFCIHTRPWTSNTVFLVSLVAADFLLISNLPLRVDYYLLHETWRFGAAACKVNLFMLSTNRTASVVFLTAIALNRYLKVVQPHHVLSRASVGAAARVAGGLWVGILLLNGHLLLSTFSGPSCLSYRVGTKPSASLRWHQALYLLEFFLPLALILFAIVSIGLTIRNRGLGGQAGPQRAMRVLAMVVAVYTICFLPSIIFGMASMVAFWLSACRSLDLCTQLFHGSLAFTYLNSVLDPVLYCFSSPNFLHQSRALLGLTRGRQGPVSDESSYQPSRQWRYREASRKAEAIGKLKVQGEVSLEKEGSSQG

168 GPCRs [10] = target: 168 GPCRs (Homo sapiens, UniProt Q16602); test: as above; details: CALCRL-RAMP2, Antagonist mode, 10 uM
Chain of 168 GPCRs (Homo sapiens, UniProt Q16602) (Q16602 23-461): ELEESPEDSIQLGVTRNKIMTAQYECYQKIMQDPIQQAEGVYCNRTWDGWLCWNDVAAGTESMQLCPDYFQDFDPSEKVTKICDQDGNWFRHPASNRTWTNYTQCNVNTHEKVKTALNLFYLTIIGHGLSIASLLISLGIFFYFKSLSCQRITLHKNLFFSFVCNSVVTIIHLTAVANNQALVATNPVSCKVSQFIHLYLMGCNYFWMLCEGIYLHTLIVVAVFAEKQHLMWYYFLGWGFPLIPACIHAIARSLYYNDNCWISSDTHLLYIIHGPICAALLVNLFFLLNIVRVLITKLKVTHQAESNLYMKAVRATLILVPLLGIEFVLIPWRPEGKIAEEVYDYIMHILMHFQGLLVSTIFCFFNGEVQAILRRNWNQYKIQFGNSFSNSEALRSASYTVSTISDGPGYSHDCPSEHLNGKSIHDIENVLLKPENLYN

168 GPCRs [11] = target: 168 GPCRs (Homo sapiens, UniProt P30874); test: as above; details: SSTR2; Antagonist; 1 uM
Chain of 168 GPCRs (Homo sapiens, UniProt P30874) (P30874 whole entry): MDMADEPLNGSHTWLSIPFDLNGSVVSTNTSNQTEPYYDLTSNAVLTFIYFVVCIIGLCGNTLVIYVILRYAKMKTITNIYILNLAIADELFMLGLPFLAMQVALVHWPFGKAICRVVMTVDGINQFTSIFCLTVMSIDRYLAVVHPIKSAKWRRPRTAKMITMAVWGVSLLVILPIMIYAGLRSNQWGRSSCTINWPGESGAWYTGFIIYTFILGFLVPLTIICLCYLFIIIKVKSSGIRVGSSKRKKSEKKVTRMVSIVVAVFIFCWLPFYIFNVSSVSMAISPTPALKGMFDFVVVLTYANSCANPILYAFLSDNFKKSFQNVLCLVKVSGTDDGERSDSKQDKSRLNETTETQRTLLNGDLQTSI

168 GPCRs [12] = target: 168 GPCRs (Homo sapiens, UniProt P30411); test: as above; details: BDKRB2, Antagonist mode, 10 uM
[13] = Excipient compatibility study (assay, appearance, degradation products); format: physicochemical
Procedure: Analyses were conducted at t=0, 2, 4 and 8 weeks for appearance, assay, and related substances for samples stored in closed vials at 25° C./60% RH and 40° C./75% RH.
Excipient Compatibility Sample Mixtures: The excipients and API were dispensed individually by weight into 20 mL clear borosilicate (type I) glass vials to fill the appropriate weights as listed in Table 12. Table 12 lists mixtures of API with varied excipients and a stand-alone control sample of API alone. Each excipient mixture sample preparation was conducted using a clean spatula to mix the vial ingredients for 30-60 seconds. Each vial was properly labeled with the description and storage conditions. One vial was used for testing at the initial (t=0) time point. Three vials, closed, were placed at each storage condition to allow sampling at each time point and one vial, closed, was placed at each storage condition for overage.

CNC(C)C(=O)c1ccc2c(c1)OCO2 (centres unmarked) [Methylone, 3,4-methylenedioxy-N-methylcathinone]
Head-twitch behaviors [1]: no effect on head-twitch behaviors at any dose tested | Type of interaction at the SERT [2]: competitive | pEC50 (SERT): 6.21 | % Activity (168 GPCRs [3]): −3.4% | % Activity (168 GPCRs [4]; AGTR1, Antagonist mode, 10 uM): −1.4% | % Activity (168 GPCRs [4]; AGTR1, Antagonist, 1 uM): 3.3% | % Activity (168 GPCRs [5]): 1.5% | % Activity (168 GPCRs [6]): −0.3% | % Activity (168 GPCRs [7]; PTHR2, Antagonist mode, 10 uM): −0.2% | % Activity (168 GPCRs [7]; PTHR2, Antagonist, 1 uM): −1% | % Activity (168 GPCRs [8]): −1.2% | % Activity (168 GPCRs [9]): 2.9% | % Activity (168 GPCRs [10]): 7% | % Activity (168 GPCRs [11]): −0.4% | % Activity (168 GPCRs [12]): −2.6% | Total Degradation Products ([13]; 2 Week 25° C. 60% RH): <LOQ | Total Degradation Products ([13]; 2 Week 40° C. 75% RH): <LOQ | Total Degradation Products ([13]; 4 Week 25° C. 60% RH): <LOQ | Total Degradation Products ([13]; 8 Week 25° C. 60% RH): <LOQ | Total Degradation Products ([13]; t = 0, LOQ ≥ 0.1%): <LOQ
